Assay [1] relates to 4T1 breast cancer primary tumor. As to the kind of experiment: Barcoded nanoparticles with different drugs injected simultaneously i.v.; barcode levels in live/dead tumor cells (FIG. 8). It counts as in vivo, BALB/c mice. The settings on record: for therapeutic effect rated from barcode distribution / drug barcode levels in the dead cells in comparison to the live cells: tumor biopsy 48 hours later; for therapeutic effect rated from barcode distribution: FIGS. 8A-E; for drug barcode levels in the dead cells in comparison to the live cells: cells sorted live/dead. As for the experimental part: Barcoded nanoparticles containing control compounds or different drugs: placebo (A), caffeine (B), Cisplatin (C), Doxorubicin (D) and Gemcitabine (E), were injected simultaneously intravenously to BALB/c mice bearing a primary tumor in the hind thigh. 48 hours later, enabling the particle to accumulate in the tumor and perform the therapeutic activity, a biopsy was taken from the tumor. The biopsy tissue was then dissociated into a single-cell suspension, and the cells were screened according to their viability (live/dead). […] (F) The potency of the drugs was calculated by dividing the number of barcodes extracted from dead cells by the number of barcodes extracted from live cells for each drug. The values are presented in logarithmic scale.
In vivo transfection: 100 μl of 10^6cells/ml of 4T1 (breast cancer) was injected subcutaneous to 10 weeks balb/c female mice. About […] later (when the primary tumor was massive enough), 100 μl of liposome solution was injected intravenous. 36 hrs later, the mouse was sacrificed and its organs (+tumor) were taken in ice for further steps.
In the present study, ovarian tumors are expanded in hESC teratomas in SCID/beige mice, as previously described (Burgos-Ojeda, ibid.). Barcoded nanoparticles loaded with anti-cancer drugs are administered intravenously. Evaluation of the therapeutic task of the nanoparticle is evaluated after 48 hours which enables accumulation in the tumor and carrying out a therapeutic task. […] Post-mortem histological evaluation of the tissue is used to study the tumor bio-distribution. A biopsy sample is then dissociated into a single-cell suspension and the cells are sorted, using antibodies, according to cell subpopulation (including, CD45, CD11B, F4/80, CD13, REST) and viability (live/dead).
Barcoded nanoparticles containing five different drugs or control compounds (FIG. 8 depicts Placebo, Caffeine, Cisplatin, Doxorubicin and Gemcitabine), were injected simultaneously intravenously to BALB/c mice bearing a primary tumor in the hind thigh. 48 hours later, a biopsy was taken from the tumor. The biopsy tissue was then dissociated into a single-cell suspension, and the cells were screened according to their viability (live/dead).

A further assay deals with 4T1 breast cancer tumor. Put plainly: Therapeutic treatment validating the barcoding analysis (FIG. 9). In kind it is in vivo, mice. The settings on record: for proliferation index (anti-Ki67 immunohistochemistry): tumors extracted 24 days after starting treatment, 125 mg/kg Gemcitabine i.v. weekly. The text has this:
FIG. 9A-D. Therapeutic efficacy based on barcoding analysis. FIGS. 9A-B and D are bar graphs comparing tumor volume change between different therapeutic groups. Each group got a weekly dose of chemo drug Doxorubicin, Cisplatin, or Gemcitabine. The control group got saline. Representative tumor dimensions of each group. The tumor was extracted […] after starting the treatment. Tumor/Body weight of each group.
To validate the barcoding analysis of the three chemotherapeutic drugs—Doxorubicin, Cisplatin and Gemcitabine, therapeutic treatment was conducted. The experiment included 4 groups, each containing 6 mice. Each group was treated with single drug for 24 days, starting 10 days post tumor induction. Each dose was given intravenous once a week. Each group was treated with either 5 mg/kg of Doxorubicin, 6 mg/kg of Cisplatin, 125 mg/kg of Gemcitabine or 100 μl of saline as a control. Tumors volumes were measured with caliper and calculated as length/2*(width)^2. […] 24 days after starting the treatment, the tumor of each mouse was extracted for further analysis. […] The tumor weight parameter reflects the effectiveness of the drug to inhibit and damage the tumor growth. The body weight parameter reflects the influence of the drug on the body or how severe are the side effects of the drug. […] To check differences in the tissue level between the different groups, all the tumors were studied histologically. Tissue slides from the tumors were stained with hematoxylin and eosin. […] Additionally, tissue slides were immunohistochemically stained with rabbit monoclonal anti-Ki67 antibody (SP6; Thermo Scientific, Fremont, Calif.) to determine proliferation index (not shown).

Setting [2] is: 5 mg/kg Doxorubicin, 6 mg/kg Cisplatin.

Entries after “also recorded” stand apart in the source; their conditions may differ.

In the case of `Cn1c(=O)c2c(ncn2C)n(C)c1=O` [Caffeine], in assay [1] (drug in barcoded nanoparticles), the “therapeutic effect rated from barcode distribution” value (from here on “therapeutic effect rated”) was “almost no effect”.

Regarding `N.N.[Cl][Pt][Cl]` [Cisplatin], the “therapeutic effect rated” value in assay [1] (drug in barcoded nanoparticles) was “clear therapeutic effect”. Moreover, the “drug barcode levels in the dead cells in comparison to the live cells” value in assay [1] was “Elevated levels”. Also, the “proliferation index (anti-Ki67 immunohistochemistry)” value (from here on “proliferation index”) with 4T1 breast cancer tumor (setting [2]) came to 65%.

Take `COc1cccc2c1C(=O)c1c(O)c3c(c(O)c1C2=O)C[C@@](O)(C(=O)CO)C[C@@H]3O[C@H]1C[C@H](N)[C@H](O)[C@H](C)O1` [Doxorubicin]: the “therapeutic effect rated” value in assay [1] (drug in barcoded nanoparticles) is recorded as “clear therapeutic effect”. Moreover, the “proliferation index” value with 4T1 breast cancer tumor (setting [2]) is listed as 90%.

On to `Nc1ccn([C@@H]2O[C@H](CO)[C@@H](O)C2(F)F)c(=O)n1` [Gemcitabine], for which the “barcodes accumulated in the dead cells, more compare to the live cells” value in assay [1] (drug in barcoded nanoparticles, 48 hours, FIG. 8(E)) was 6,000. Also, the “therapeutic effect rated” value in assay [1] (drug in barcoded nanoparticles) is reported as “more effective than cisplatin; also recorded: most efficient drug”. Besides, the “drug barcode levels in the dead cells in comparison to the live cells” value in assay [1] is listed as “Elevated levels”. Besides, the tumor/body weight ratio entry in the assay on 4T1 breast cancer tumor (at sacrifice, FIG. 9(C), weekly i.v. dosing) is given as “minimum tumor/body weight ratio”. Also, the “tumor volume change / tumor growth” value in the assay with 4T1 breast cancer tumor (i.v. once a week for 24 days, 5 mg/kg Doxorubicin, 6 mg/kg Cisplatin, 125 mg/kg Gemcitabine, FIG. 9(A)) was “significantly attenuated the growth of the tumors”. Moreover, the “proliferation index” value with 4T1 breast cancer tumor (setting [2]) is given as 40%.

The values are drawn from patent US12344899B2, “Compositions and methods for therapeutics prescreening” (TECHNION RESEARCH & DEVELOPMENT FOUNDATION LIMITED, priority 2014, dated 2025).
